# Source: publication PMC10487436, “Towards Anticancer and Antibacterial Agents: Design and Synthesis of 1,2,3-Triazol-quinobenzothiazine Derivatives” (International Journal of Molecular Sciences, 2023)
# What was measured:
# [1] = test system: Mycobacterium smegmatis ATCC 700084; test: MIC, broth dilution micro-method, MS; format: cell-based; conditions: Mycolicibacterium smegmatis, ATCC700084, 72 h; 3 days at 37 °C
# [2] = test system: Mycobacterium marinum CAMP 5644; test: MIC, broth dilution micro-method, MM; format: cell-based; conditions: CAMP5644, 504 h, 21 days at 28 °C
# [3] = test system: SNB-19 (human glioblastoma); test: WST-1 proliferation assay, SNB-19; format: cell-based
# Protocol: (§1) Compounds were evaluated for their antiproliferative activity using three cultured cell lines: A549 (human lung carcinoma, ATCC, Manassas, VA, USA), SNB-19 (human glioblastoma, DSMZ, German Collection of Microorganisms and Cell Cultures), T-47D (human breast cancer, ATCC, Manassas, VA, USA), and NHDF (normal human dermal fibroblasts, ATCC, Manassas, VA, USA). The cultured cells were kept at 37 °C and 5% CO2. The cells were seeded (1 × 10^4 cells/well/100 μL DMEM supplemented with 10% FCS, streptomycin, and penicillin) using 96-well plates (corning). Cells were counted in a hemocytometer (Burker chamber) using a phase contrast Olympus IX50 microscope equipped with a Sony SSC-DC58 AP camera and an Olympus DP10 digital camera.
# (§2) The antiproliferative effect of the compounds exerted on cancer and normal cells was determined using the Cell Proliferation Reagent WST-1 assay (Roche Molecular Biochemicals, Mannheim, Germany). This assay is based on a colorimetric method using the enzymatic ability of viable cells to cause the bright, red-colored stable tetrazolium monosodium salt [2-(4-iodophenyl)-3-(4-nitrophenyl)-5-(2,4-disulfophenyl)–2H-tetra-zolium] to transform into the dark, red-colored soluble formazan. […] An increase in the amount of formazan dye formed correlated with the number of metabolically active cells in the culture. The formazan dye produced by metabolically active cells was quantified by absorbance readings at appropriate wavelengths. The examined cells were exposed to the tested compounds (1 mM DMSO stock) for 72 h at various concentrations (0.1–100 μM). The control was performed in order to eliminate the DMSO effect at the concentration used. Cell cultures were incubated with WST-1 (10 μL) for 1 h. The absorbance of the samples was measured against a background control at 450 nm using a microplate reader with a reference wavelength at 600 nm. The obtained results are expressed as the means of at least two independent experiments performed in triplicate. The antiproliferative activity of the tested compounds was compared to that of cisplatinum. The values of IC50 (a concentration of a compound that is required for 50% inhibition) were calculated from the dose-response relationship with respect to control. The results were reported as the mean (±std) of three separate experiments.
# [4] = test system: A549 (human lung carcinoma); test: WST-1 proliferation assay, A549; format: cell-based
# Protocol: as §1, §2
# [5] = test system: T-47D (human breast cancer); test: WST-1 proliferation assay, T47D; format: cell-based; conditions: 72 h exposure
# Protocol: as §1, §2
# [6] = test system: NHDF (normal human dermal fibroblasts); test: WST-1 proliferation assay, NHDF; format: cell-based; conditions: normal cells, 72 h exposure
# Protocol: as §1, §2
# [7] = test system: Staphylococcus aureus ATCC 29213; test: MIC, microtitration broth method, SA; format: cell-based; conditions: ATCC29213, 24 h at 37 °C
# Protocol: (§3) In vitro antibacterial activity of the synthesized compounds was evaluated against representatives of multidrug-resistant bacteria, three clinical isolates of methicillin-resistant S. aureus: clinical isolates of animal origin, MRSA 63718 (Department of Infectious Diseases and Microbiology, Faculty of Veterinary Medicine, University of Veterinary Sciences Brno, Czech Republic), carrying the mecA gene; and MRSA SA 630 and MRSA SA 3202 [52] (National Institute of Public Health, Prague, Czech Republic), both of human origin. […] Vancomycin- and methicillin-susceptible S. aureus ATCC 29213 and vancomycin-susceptible Enterococcus faecalis ATCC 29212, obtained from the American Type Culture Collection, were used as the reference and quality control strains. Three vanA gene-carrying vancomycin-resistant isolates of E. faecalis (VRE 342B, VRE 368, VRE 725B) were provided by Oravcova et al..
# (§4) The minimum inhibitory concentrations (MICs) were evaluated by the microtitration broth method according to the CLSI, with some modifications. The compounds were dissolved in DMSO (Sigma, St. Louis, MO, USA) to obtain a concentration of […] and diluted in a microtitration plate in an appropriate medium, i.e., Cation Adjusted Mueller–Hinton Broth (CaMH, Oxoid, Basingstoke, UK) for staphylococci, and Brain Heart Infusion Broth (BHI, Oxoid) for enterococci, to reach the final concentration of 256–0.125 µg/mL. Microtiter plates were inoculated with test micro-organisms so that the final concentration of bacterial cells was 10^5. […] A drug-free control and a sterility control were included. The plates were incubated for 24 h at 37 °C for staphylococci and enterococci. […] The experiments were repeated three times.
# [8] = test system: methicillin-resistant S. aureus SA 3202; test: MIC, microtitration broth method, MRSA1; format: cell-based; conditions: Staphylococcus aureus; 24 h at 37 °C
# Protocol: as §3, §4
# [9] = test system: methicillin-resistant S. aureus SA 630; test: MIC, microtitration broth method, MRSA2; format: cell-based; conditions: Staphylococcus aureus; 24 h at 37 °C
# Protocol: as §3, §4
# [10] = test system: methicillin-resistant S. aureus 63718; test: MIC, microtitration broth method, MRSA3; format: cell-based; conditions: Staphylococcus aureus; 24 h at 37 °C
# Protocol: as §3, §4
# [11] = test system: Enterococcus faecalis ATCC 29213; test: MIC, microtitration broth method, EF; format: cell-based; conditions: ATCC29213, 24 h at 37 °C
# [12] = test system: vancomycin-resistant E. faecalis VRE 342B; test: MIC, microtitration broth method, VRE1; format: cell-based; conditions: Enterococcus faecalis, 24 h at 37 °C
# Protocol: as §3, §4
# [13] = test system: vancomycin-resistant E. faecalis VRE 368; test: MIC, microtitration broth method, VRE2; format: cell-based; conditions: Enterococcus faecalis, 24 h at 37 °C
# Protocol: as §3, §4
# [14] = test system: vancomycin-resistant E. faecalis VRE 725B; test: MIC, microtitration broth method, VRE3; format: cell-based; conditions: Enterococcus faecalis, 24 h at 37 °C
# Protocol: as §3, §4
# [15] = test system: Mycobacterium smegmatis ATCC 700084; test: MBC, agar aliquot subculture method, MS; format: cell-based; conditions: Mycolicibacterium smegmatis, ATCC700084
# Protocol: (§5) For the above-mentioned strains/isolates, the agar aliquot subculture method was used as a test for bactericidal agents. After the MIC value determination, the inoculum was transferred to CaMH (Oxoid) for staphylococci, BHI (Oxoid) for enterococci, and Middlebrook 7H9 (Difco) for mycobacteria medium using a multipoint inoculator. As indicated above, the plates were incubated on a thermostat at 37 °C for the appropriate time for each micro-organism. The lowest concentration of test compound at which ≤5 colonies were obtained was then evaluated as MBC, corresponding to a 99.9% decrease in CFU relative to the original inoculum.
# [16] = test system: Mycobacterium marinum CAMP 5644; test: MBC, agar aliquot subculture method, MM; format: cell-based; conditions: CAMP5644
# Protocol: as §5
# [17] = test system: methicillin-resistant S. aureus 63718; test: MBC, agar aliquot subculture method, MRSA3; format: cell-based; conditions: Staphylococcus aureus
# Protocol: as §5
# [18] = test system: Mycobacterium smegmatis ATCC 700084; conditions: 3 days; for Conc.: lowest multiple of MBC with at least 70% inhibition of respiratory activity / Conc.: lowest multiple of MIC with at least 70% inhibition of respiratory activity: MTT
# [19] = Homo sapiens, SNB-19, 72 h exposure
# [20] = Homo sapiens, A549, 72 h exposure
Structure (SMILES),MIC [1],MIC [2],"IC50 [3, 19]","IC50 [4, 20]","IC50 ([5]; Homo sapiens, T47D)","IC50 ([6]; Homo sapiens, NHDF)",MIC [7],MIC [8],MIC [9],MIC [10],MIC [11],MIC [12],MIC [13],MIC [14],MBC [15],MBC [16],other results
"CO[C@H]1/C=C/O[C@@]2(C)Oc3c(C)c(O)c4c(O)c(c(/C=N/N5CCN(C)CC5)c(O)c4c3C2=O)NC(=O)/C(C)=C\C=C\[C@H](C)[C@H](O)[C@@H](C)[C@@H](O)[C@@H](C)[C@H](OC(C)=O)[C@@H]1C [RIF, rifampicin, reference compound]",19.4 µM,2.43 µM,–,–,–,–,–,–,–,–,–,–,–,–,–,–,–
"C[n+]1cc2c(c3ccccc31)Nc1c(OCc3cn(Cc4ccccc4)nn3)cccc1S2 [2f, 5-Methyl-11-(1-benzyl-1H-1,2,3-triazol-4-yl)methoxy-12H-quino [3,4-b][1,4]benzothiazinium chloride]",65.5 µM,65.5 µM,8.5 ± 0.5 µM,11.5 ± 0.6 µM,20.5 ± 1.4 µM,30.5 ± 2.1 µM,> 524 µM,> 524 µM,> 524 µM,524 µM,> 524 µM,> 524 µM,> 524 µM,> 524 µM,65.5 µM,65.5 µM,–
"Nc1cccc(OCc2cn(Cc3ccc([N+](=O)[O-])cc3)nn2)c1 [5h, 1-(4-nitrobenzyl)-4-(3-aminophenoxy)methyl-1H-1,2,3-triazole]",–,–,> 100 µM,> 100 µM,> 100 µM,> 100 µM,–,–,–,–,–,–,–,–,–,–,–
"C=CCn1cc(COc2ccc3c(c2)Nc2c(c[n+](C)c4ccccc24)S3)nn1 [2b, 5-Methyl-10-(1-allyl-1H-1,2,3-triazol-4-yl)methoxy-12H-quino [3,4-b][1,4]benzothiazinium chloride]",65.5 µM,65.5 µM,2.7 ± 0.4 µM,1.8 ± 0.2 µM,5.3 ± 0.6 µM,> 100 µM,524 µM,> 524 µM,> 524 µM,262 µM,> 524 µM,> 524 µM,> 524 µM,524 µM,65.5 µM,65.5 µM,MBC [17]: 262 µM
"Nc1ccc(OCc2cn(Cc3ccc([N+](=O)[O-])cc3)nn2)cc1 [5i, 1-(4-nitrobenzyl)-4-(4-aminophenoxy)methyl-1H-1,2,3-triazole]",–,–,> 100 µM,> 100 µM,> 100 µM,> 100 µM,–,–,–,–,–,–,–,–,–,–,–
"COc1cccc2c1C(=O)c1c(O)c3c(c(O)c1C2=O)C[C@@](O)(C(=O)CO)C[C@@H]3O[C@H]1C[C@H](N)[C@H](O)[C@H](C)O1 [DOX, doxorubicin, reference compound]",–,–,1.7 ± 0.2 µM,1.3 ± 0.1 µM,0.8 ± 0.1 µM,5.5 ± 0.5 µM,–,–,–,–,–,–,–,–,–,–,–
"O=C(O)c1cn(C2CC2)c2cc(N3CCNCC3)c(F)cc2c1=O [CPX, ciprofloxacin, reference compound]",0.38 µM,0.38 µM,–,–,–,–,–,–,–,–,–,–,–,–,0.38 µM,0.38 µM,Conc.: lowest multiple of MBC with at least 70% inhibition of respiratory activity [18]: 32× MIC (32× MBC); Conc.: lowest multiple of MIC with at least 70% inhibition of respiratory activity [18]: 32× MIC (32× MBC)
"C[n+]1cc2c(c3ccccc31)Nc1c(OCc3cn(Cc4ccc([N+](=O)[O-])cc4)nn3)cccc1S2 [2i, 5-Methyl-11-[1-(4-nitrobenzyl)-1H-1,2,3-triazol-4-yl]methoxy-12H-quino [3,4-b][1,4]benzothiazinium chloride]",65.5 µM,131 µM,4.9 ± 0.3 µM,9 ± 0.4 µM,2.8 ± 0.2 µM,> 100 µM,524 µM,524 µM,524 µM,524 µM,> 524 µM,> 524 µM,> 524 µM,524 µM,65.5 µM,131 µM,–
"C[n+]1cc2c(c3ccccc31)Nc1cc(OCc3cn(-c4ccc(Cl)cc4)nn3)ccc1S2 [2n, 5-Methyl-10-(1-(4-chlorophenyl)-1H-1,2,3-triazol-4-yl)methoxy-12H-quino [3,4-b][1,4]benzothiazinium chloride]",16.3 µM,32.7 µM,42.9 ± 1.8 µM,14.3 ± 0.8 µM,15.4 ± 1.1 µM,> 100 µM,> 524 µM,> 524 µM,> 524 µM,262 µM,> 524 µM,> 524 µM,> 524 µM,> 524 µM,16.3 µM,32.7 µM,MBC [17]: 262 µM; Conc.: lowest multiple of MBC with at least 70% inhibition of respiratory activity [18]: 1× MIC (1× MBC); Conc.: lowest multiple of MIC with at least 70% inhibition of respiratory activity [18]: 1× MIC (1× MBC); viability of M. smegmatis at MIC value ([18]; Mycobacterium smegmatis): less than 70%; M. smegmatis Respiration Inhibition ([18]; at the concentration (lowest multiple of MIC with at least 70% inhibition)): 85.9%
"Nc1ccc(OCc2cn(Cc3ccccc3)nn2)cc1 [5f, 1-benzyl-4-(4-aminophenoxy)methyl-1H-1,2,3-triazole]",–,–,> 100 µM,> 100 µM,> 100 µM,> 100 µM,–,–,–,–,–,–,–,–,–,–,–
"N.N.[Cl][Pt][Cl] [CIS, cisplatin, reference compound]",–,–,–,–,–,–,–,–,–,–,–,–,–,–,–,–,IC50 ([3]; 72 h exposure): 16.7 ± 1.3 µM; IC50 ([4]; 72 h exposure): 3 ± 0.2 µM; IC50 [5]: 9 ± 0.7 µM; IC50 [6]: 29.9 ± 3.3 µM
"C=CCn1cc(COc2cccc3c2Nc2c(c[n+](C)c4ccccc24)S3)nn1 [2c, 5-Methyl-11-(1-allyl-1H-1,2,3-triazol-4-yl)methoxy-12H-quino [3,4-b][1,4]benzothiazinium chloride]",65.5 µM,131 µM,4.1 ± 0.5 µM,5.7 ± 0.9 µM,7.6 ± 0.4 µM,> 100 µM,524 µM,524 µM,524 µM,524 µM,> 524 µM,> 524 µM,> 524 µM,524 µM,65.5 µM,131 µM,–
"C=CCn1cc(COc2ccccc2N)nn1 [5a, 1-allyl-4-(2-aminophenoxy)methyl-1H-1,2,3-triazole]",–,–,> 100 µM,> 100 µM,> 100 µM,> 100 µM,–,–,–,–,–,–,–,–,–,–,–
